Bridges are numbered along the chain shown (N, C = ends). Where no end group is shown, it is not given here.
Key:
MCF-7 = assay: Flow cytometry of phage binding to EGFR negative tumor cells; format: cell-based, human; settings: EGFR positive versus EGFR negative cells
Experimental: (§1) Flow cytometry. To evaluate whether the selected peptides from phage display can bind to tumor cells that overexpress EGFR, A431 cells (epidermoid cancer) or an EGFR negative tumor cells, MCF-7 (breast carcinoma) were tested in a flow cytometry assay using fluorescence detection (FACS). For P145, PP146 and their control phage, 2.5×10^5 A431 cells were resuspended in 25 μl of flow staining buffer (dPBS with 1% BSA, 0.09% sodium azide) and incubated with 25 μl of phage clones for 1 hour at 4° C. […] Cells were washed two times with flow staining buffer and then incubated with 0.5 μg of mouse anti M13/fd/F1 filamentous phages monoclonal antibody conjugated to FITC (Fitzgerald Industries International, Inc. Concord, Mass.) for 45 minutes at 4° C. Cells were washed two times with flow staining buffer and acquired by FACSCalibur (BD, Franklin Lakes, N.J.) to detect bound phages on tumor cell surface. Results.
(§2) A431 cells (epidermoid cancer) which overexpress EGFR and EGFR-negative tumor cells, MCF-7 (breast carcinoma) were tested in a flow cytometry assay. Tumor cells (A431 and MCF-7) were harvested with 0.25% tyrpsin-EDTA and washed twice with FACS staining buffer (dPBS with 1% BSA, 0.09% sodium azide). […] After binding at 4° C., cells were washed twice with FACS staining buffer to remove unbound phage and then incubated with 0.5 μg of mouse anti-M13 monoclonal antibody conjugated to FITC (Fitzgerald Industries International, Inc. Concord, Mass.) for 1 hour at 4° C. Mouse anti-M13-FITC incubated with cells without phage was used as background binding. Cells were washed twice with FACS staining buffer to remove unbound detection antibody.

[1] = molecular target: T1, complex between EGF and sEGFR-MMB (Homo sapiens, UniProt P00533); assay: Phage ELISA binding studies on P190, receptor with added EGF; settings: Table 10; listed as pIX-190
T1 construct: made in house
Experimental: The plates were held overnight at room temperature, washed twice with TBST (0.5M Tris Base, 9% NaCl, 0.05% tween, pH 7.6), and loaded with 200 μL per well of Starting Block (Pierce). […] The plates were held at room temperature for 1.5 hours for blocking. Plates were then washed twice with TBST and phage were added. The phage solutions were crude phage supernatant from overnight cultures diluted four-fold with Starting Block. After a one-hour incubation, the plates were washed thrice with TBST and 100 μL of a 1:5000 dilution of phage binding antibody conjugate (α-M13-HRP) was added to the wells. EGF was added if applicable. After a one-hour incubation the plates were washed five times with TBST, 100 μL of POD (BM Chemiluminescence ELISA substrate; Roche Applied Science) was added, and chemiluminescence recorded.

A431 cells [2] = assay: Flow cytometry of phage binding to tumor cells; format: cell-based, human; settings: for binding to A431 tumor cells: anti-phage-FITC antibody, 4° C.
Experimental: as §1, §2

A431 cells [3] = assay: Internalization of biotinylated P190 by FACS and confocal microscopy; format: cell-based, human; settings: 37° C.
Experimental: The complexes were added to A431 cells that had been pre-incubated in PBS with or without EGF for 15 minutes and then incubated for an additional hour. Cells were washed to remove unbound complexes and split into two separate tubes, one of which stayed at 4° C. and one of which was incubated for 2 hours at 37° C. to promote internalization. Again, cells were washed and further split into 2 groups with one tube from each temperature undergoing acid wash treatment to remove surface-bound biotinylated peptide. Cells were washed again in FACS staining buffer and peptide binding and internalization were acquired by FACSCalibur (BD, Franklin Lakes, N.J.) and analyzed by Cell Quest software. The remaining cells from both 4° C. and 37° C. without acid wash after FACS analysis were centrifuged and resuspended with 50 μL mounting medium containing DAPI (Vector Laboratory Inc. Burlingame, Calif.). Ten μL of cells in mounting medium were transferred to a glass slide, covered with thin glass slips and examined by confocal microscopy.

sEGFR-MMB = molecular target: T2, sEGFR-MMB (Homo sapiens, UniProt P00533); assay: Phage ELISA screening of panning hits; format: binding; settings: phage clone culture supernatant; background typically <200 units
T2 construct: made in house; host or cells: Human Embryonic Kidney cells (293E)
Experimental: Phage Screening. Individual phage clones from selections were amplified and screened for EGFR binding by phage ELISA. To amplify pIII phage for screening, phage eluates from round 3 were diluted appropriately and plated with a lawn of XL-1 Blue to yield isolated single plaques. 24 plaques from each pool were picked and inoculated into a culture of XL-1 Blue host cells. The cultures were shaken at 37° C. for 4.5 hr and the cells were removed by centrifugation. To amplify pIX-displaying phagemid clones, phage eluates were infected into XL-1 Blue and plated onto LB-ampicillin plates. Individual colonies were cultured in 1 ml volumes and rescued with VCS-M13 helper phage. Bacterial cells were removed from phage cultures by centrifugation at (2250×g, 7 min) and the phage-containing supernatant was saved.
The protein solution was removed and wells were rinsed twice with Tris-Buffered Saline containing 0.05% Tween-20 (TBS-T) using a plate washer (Embla). The wells were blocked with Starting Block in TBS for 1 hr at room temperature and rinsed twice with TBS-T. An equal volume of phage supernatant and Starting Block in TBS were incubated in the wells for 1 hr at room temperature, and the wells were rinsed five times with TBS-T. Anti-M13/horseradish peroxidase conjugate (Amersham), diluted 1:5000 in Starting Block in TBS, was added into the wells and incubated for 1 hour at room temperature, and then the wells were rinsed five times with TBS-T. Finally, chemiluminescent peroxidase substrate (Roche) was added to the wells, and chemiluminescence was measured on a Tecan plate reader.
Sequences and ELISA signal (background typically <200 units) are given, along with a consensus sequence, if any. Cysteines that are fixed in the library design are underlined.

| Sequence | binding to A431 compared with MCF-7 (MCF-7) | binding to A431 compared with MCF-7 (MCF-7; listed as pIII-190) | binding to A431 compared with MCF-7 (MCF-7; listed as pIX-190) | Binds EGF + SEGFR-MMB Complex [1] | phage binding to A431 cells in the presence of EGF (A431 cells [2]) | phage binding to A431 cells in the presence of EGF and cetuximab (A431 cells [2]) | internalization into EGFR^+ cells (A431 cells [3]) | ELISA signal (sEGFR-MMB) | binding to A431 relative to positive control EGF phage (A431 cells [2]) | binding to A431 tumor cells (A431 cells [2]) |
| --- | --- | --- | --- | --- | --- | --- | --- | --- | --- | --- |
| DPCTWEVWGRECLQ [P190] | bound more effectively to A431 cells | bind to A431 but not to MCF-7 | bind to A431 but not to MCF-7 | increased in the presence of EGF or TGF-a | increased | decreases | is internalized | – | – | – |
| KTCVSTTFDLWFVCFA (disulfide 3-14 (inferred)) [P176] | – | – | – | – | – | – | – | 37440 units | comparable to that by a positive control phage | displayed binding |
| SGCLDALWQCVY (S16 and S17 hits Phage 174) [P174] | greater to A431 than to MCF-7 | – | – | – | – | – | – | 34641 units | comparable to that by a positive control phage | displayed binding |
| TLCRSFFHPLCYA (Sequences of EGFR-Binding Peptides from pIII phage library (CNL5 P146)) | – | – | – | – | – | – | – | – | weaker than that exhibited by a positive control phage | displayed binding |
| VLCHRYYHPICYT [P145] | greater binding to A431 than MCF-7 cells | – | – | – | – | – | – | – | weaker than that exhibited by a positive control phage | displayed binding |

From patent US8536113B2, “EGFR binding peptides and uses thereof” (Janssen Biotech, Inc., priority 2006, dated 2013)
